Results on 8 compounds are retold here after US20080120733A1, “Rnai-Based Method for Selecting Transfected Eukaryotic Cells” (GBF-GESELLSCHAFT FUR BIOTECHNOLOGISCHE FORSCHUNG, priority 2004, published 2008).

The structures appear in SMILES notation.

For one assay, the system named is APRT. The experiment in a line: Effect of selection media on wild type, APRT-RNAi and APRT knock out cells (survival / cell death). As to all read-outs here: key: Survival of the cells in the respective selective conditions is marked +; cell death in the respective selective condition is marked −. It counts as cell-based. To be noted: for Effect of selection medium on cells: RNAi: cells expressing RNAi-constructs directed against APRT; for Effect of selection medium on cells: knock out: cells with APRT inactivated on the chromosomal level; for Effect of selection medium on cells: wild type: gene APRT.

Another assay concerns HPRT. Description: Effect of selection media on wild type, HPRT-RNAi and HPRT knock out cells (survival / cell death). Type of assay: cell-based. To be noted: for Effect of selection medium on cells: RNAi: cells expressing RNAi-constructs directed against HPRT; for Effect of selection medium on cells: knock out: cells with HPRT inactivated on the chromosomal level; for Effect of selection medium on cells: wild type: gene HPRT.

A further assay concerns thymidine kinase. Description: Effect of selection media on wild type, thymidine kinase-RNAi and thymidine kinase knock out cells (survival / cell death). As to all read-outs here: key: Survival of the cells in the respective selective conditions is marked +; cell death in the respective selective condition is marked −. It counts as cell-based. Particulars: for Effect of selection medium on cells: RNAi: cells expressing RNAi-constructs directed against thymidine kinase; for Effect of selection medium on cells: knock out: cells with thymidine kinase inactivated on the chromosomal level; for Effect of selection medium on cells: wild type: gene thymidine kinase.

Consider `CN(Cc1cnc2nc(N)nc(N)c2n1)c1ccc(C(=O)N[C@@H](CCC(=O)O)C(=O)O)cc1` [methotrexate], for which the “Effect of selection medium on cells: RNAi” value with DHFR (cells expressing RNAi-constructs directed against DHFR) was “−”. Besides, the “Effect of selection medium on cells: knock out” value with DHFR (cells with DHFR inactivated on the chromosomal level) is “−”. Further, in the assay on DHFR (wild type cells, gene DHFR), the “Effect of selection medium on cells: wild type” value is “+”.

Take `Nc1nc(F)nc2nc[nH]c12` [2-fluoroadenine]: in the assay on APRT, the “Effect of selection medium on cells: RNAi” value is listed as “+”, the “Effect of selection medium on cells: knock out” value is reported as “+” and the “Effect of selection medium on cells: wild type” value is on record as “−”.

Regarding `Nc1nc2c(ncn2[C@@H]2O[C@H](CO)[C@@H](O)[C@H]2O)c(=S)[nH]1` [6-thioguanosine], in the assay on HPRT, the “Effect of selection medium on cells: RNAi” value was “+”, the “Effect of selection medium on cells: knock out” value is given as “+” and the “Effect of selection medium on cells: wild type” value was “−”.

Take `Nc1nc2c(nnn2[C@@H]2O[C@H](CO)[C@@H](O)[C@H]2O)c(=O)[nH]1` [8-azaguanosine]: in the assay with HPRT, the “Effect of selection medium on cells: RNAi” value is given as “+”, the “Effect of selection medium on cells: knock out” value is “+” and the “Effect of selection medium on cells: wild type” value is given as “−”.

`O=c1[nH]c(=O)n([C@H]2C[C@H](O)[C@@H](CO)O2)cc1Br` [bromodesoxyuridine]: in the assay on thymidine kinase, the “Effect of selection medium on cells: RNAi” value is “+”, the “Effect of selection medium on cells: knock out” value was “+” and the “Effect of selection medium on cells: wild type” value is listed as “−”.

Take `Nc1nc(N)c2nc[nH]c2n1` [diaminopurine]: in the assay with APRT, the “Effect of selection medium on cells: RNAi” value was “+”, the “Effect of selection medium on cells: knock out” value is recorded as “+” and the “Effect of selection medium on cells: wild type” value is “−”.

`O=c1[nH]c(=O)n([C@H]2C[C@H](O)[C@@H](CO)O2)cc1C(F)(F)F` [trifuorothymidine]: in the assay on thymidine kinase, the “Effect of selection medium on cells: RNAi” value is “+”, the “Effect of selection medium on cells: knock out” value is recorded as “+” and the “Effect of selection medium on cells: wild type” value was “−”.

`Nc1ncnc2nn[nH]c12` [8-azaadenine]: in the assay with APRT, the “Effect of selection medium on cells: RNAi” value was “+”, the “Effect of selection medium on cells: knock out” value is reported as “+” and the “Effect of selection medium on cells: wild type” value is “−”.
